Where a SMILES comes first, the peptide text is derived from it. The star is where a group is joined. Cbz = O=C(OCc1ccccc1)*; CH2F = FC*
Columns and labels:
inner ear = experiment: Hearing by auditory brainstem response after round window injection of vector; format: in vivo, mouse; conditions: for protection of hearing / prevention of inner ear trauma by caspase inhibitor: larger volumes of fluid (greater than about 10% of total inner ear volume), hydraulic/mechanical injury
cathepsin B = cathepsin B (Homo sapiens, UniProt P07858); conditions: in vitro and in tissue culture cells at concentrations used to demonstrate the involvement of caspases; cited from earlier work
[1] = test system: hair cells of organ of Corti; experiment: Mitochondrial function and hair cell survival in organ of Corti treated with cisplatin; format: cell-based; conditions: cisplatin treatment alone (FIGS. 3B, 3E)
Text: FIGS. 3A-3F are fluorescent micrographs showing mitochondrial function in hair cells. Cells with healthy and functioning mitochondria stain red and are depicted in 3D, 3E and 3F. The presence of hair cells are shown in green and depicted in 3A, 3B and 3C. FIGS. 3A and 3D represent untreated controls. FIGS. 3B and 3E show an organ of Corti treated with the chemotherapeutic agent cisplatin. […] FIGS. 3C and 3F show an organ of Corti pretreated with an adenovector with bcl2 expression followed by cisplatin treatment.

For `CC(C)[C@H](NC(=O)OCc1ccccc1)C(=O)N[C@@H](C)C(=O)N[C@@H](CC(=O)O)C(=O)CF` [zVAD-FMK, N-benzyloxycarbonyl-Val-Ala-Asp-fluoromethylketone] (Cbz-Val-Ala-Asp-CH2F), which “protection of hearing / prevention of inner ear trauma by caspase inhibitor” value (inner ear) is on record?
The value was “can prevent inner ear trauma”.

And the “protection of hearing / prevention of inner ear trauma by caspase inhibitor” value (inner ear; listed as pancaspase inhibitor)?
Its value is “protected hearing”.

And the “hearing loss with pancaspase inhibitor added to the vector composition” value (inner ear; round window, injection volumes up to 3 μL, zVAD-FMK 1 mM, 2 μL with 1 μL vector)?
The value was “only minimal loss of hearing”.

What about the “cathepsin B activity inhibition” value (cathepsin B) of the same molecule?
Its value is “inhibit efficiently cathepsin B activity”.

For `N.N.[Cl][Pt][Cl]` [cisplatin], which “hair cells and mitochondrial function in organ of Corti” value [1] is on record?
Its value is “loss of cells and loss of mitochondrial function”.

Source: patent US20050095270A1, “Drug delivery to the inner ear and methods of using same” (priority 2003, published 2005)
